Laboratory results taken from the supplement of paper PMC7214452.
Counter-ions that a name gives are not always drawn.

Experiments:
Experiment in all cases: normalized area under the dose-response curve (viability relative to DMSO control) (fraction); higher = less sensitive (more viable cells)
Conditions in all cases: exposure time not given
AMO1 (cancer type: MM) = test system: AMO1 (cancer type: MM)
Description: (§1)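 25 myeloma and 15 non-Hodgkin lymphoma cell lines were exposed to each of 76 drugs as 7-point log dilutions (0.01 nM–10 µM) in duplicate. Viability was read with CellTiter-Glo and normalised to DMSO (0.1%) and staurosporine (10 µM) plate controls. Normalised AUC was calculated by the trapezoidal method relative to the negative control.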

EJM (cancer type: MM) = test system: EJM (cancer type: MM)
Description: as §1

FR4 (cancer type: MM) = test system: FR4 (cancer type: MM)
Description: as §1

[1] = test system: Granta-519 (cancer type: Mantle)
Description: as §1

[2] = test system: HuT 78 (cancer type: TCL)
Description: as §1

JJN3 (cancer type: MM) = test system: JJN3 (cancer type: MM)
Description: as §1

[3] = test system: JVM2 (cancer type: Mantle)
Description: as §1

[4] = test system: JeKo-1 (cancer type: Mantle)
Description: as §1

KMS11 (cancer type: MM) = test system: KMS11 (cancer type: MM)
Description: as §1

[5] = test system: KMS12PE (cancer type: MM)
Description: as §1

KMS18 (cancer type: MM) = test system: KMS18 (cancer type: MM)
Description: as §1

KMS26 (cancer type: MM) = test system: KMS26 (cancer type: MM)
Description: as §1

[6] = test system: KMS28BM (cancer type: MM)
Description: as §1

[7] = test system: KMS28PE (cancer type: MM)
Description: as §1

KMS34 (cancer type: MM) = test system: KMS34 (cancer type: MM)
Description: as §1

[8] = test system: Karpas-299 (cancer type: TCL)
Description: as §1

L363 (cancer type: MM) = test system: L363 (cancer type: MM)
Description: as §1

LP1 (cancer type: MM) = test system: LP1 (cancer type: MM)
Description: as §1

MM1.R (cancer type: MM) = test system: MM1.R (cancer type: MM)
Description: as §1

MM1.S (cancer type: MM) = test system: MM1.S (cancer type: MM)
Description: as §1

[9] = test system: Mino (cancer type: Mantle)
Description: as §1

My-La (cancer type: TCL) = test system: My-La (cancer type: TCL)
Description: as §1

[10] = test system: NCI-H929 (cancer type: MM)
Description: as §1

[11] = test system: OCI-LY1 (cancer type: DLBCL)
Description: as §1

[12] = test system: OCI-LY19 (cancer type: DLBCL)
Description: as §1

[13] = test system: OCI-LY3 (cancer type: DLBCL)
Description: as §1

[14] = test system: OCI-MY5 (cancer type: MM)
Description: as §1

[15] = test system: OCI-MY5/CRBN (cancer type: MM)
Description: as §1

[16] = test system: OCI-MY5/Vec (cancer type: MM)
Description: as §1

[17] = test system: OCI-MY7 (cancer type: MM)
Description: as §1

OPM2 (cancer type: MM) = test system: OPM2 (cancer type: MM)
Description: as §1

[18] = test system: RPMI 8226 (cancer type: MM)
Description: as §1

SKMM2 (cancer type: MM) = test system: SKMM2 (cancer type: MM)
Description: as §1

[19] = test system: SR-786 (cancer type: TCL)
Description: as §1

[20] = test system: SU-DHL1 (cancer type: TCL)
Description: as §1

[21] = test system: SU-DHL2 (cancer type: DLBCL)
Description: as §1

[22] = test system: SU-DHL6 (cancer type: DLBCL)
Description: as §1

Se-Ax (cancer type: TCL) = test system: Se-Ax (cancer type: TCL)
Description: as §1

U266 (cancer type: MM) = test system: U266 (cancer type: MM)
Description: as §1

XG2 (cancer type: MM) = test system: XG2 (cancer type: MM)
Description: as §1

SMILES	normalized area under the dose-response curve (AMO1 (cancer type: MM))	normalized area under the dose-response curve (EJM (cancer type: MM))	normalized area under the dose-response curve (FR4 (cancer type: MM))	normalized area under the dose-response curve [1]	normalized area under the dose-response curve [2]	normalized area under the dose-response curve (JJN3 (cancer type: MM))	normalized area under the dose-response curve [3]	normalized area under the dose-response curve [4]	normalized area under the dose-response curve (KMS11 (cancer type: MM))	normalized area under the dose-response curve [5]	normalized area under the dose-response curve (KMS18 (cancer type: MM))	normalized area under the dose-response curve (KMS26 (cancer type: MM))	normalized area under the dose-response curve [6]	normalized area under the dose-response curve [7]	normalized area under the dose-response curve (KMS34 (cancer type: MM))	normalized area under the dose-response curve [8]	normalized area under the dose-response curve (L363 (cancer type: MM))	normalized area under the dose-response curve (LP1 (cancer type: MM))	normalized area under the dose-response curve (MM1.R (cancer type: MM))	normalized area under the dose-response curve (MM1.S (cancer type: MM))	normalized area under the dose-response curve [9]	normalized area under the dose-response curve (My-La (cancer type: TCL))	normalized area under the dose-response curve [10]	normalized area under the dose-response curve [11]	normalized area under the dose-response curve [12]	normalized area under the dose-response curve [13]	normalized area under the dose-response curve [14]	normalized area under the dose-response curve [15]	normalized area under the dose-response curve [16]	normalized area under the dose-response curve [17]	normalized area under the dose-response curve (OPM2 (cancer type: MM))	normalized area under the dose-response curve [18]	normalized area under the dose-response curve (SKMM2 (cancer type: MM))	normalized area under the dose-response curve [19]	normalized area under the dose-response curve [20]	normalized area under the dose-response curve [21]	normalized area under the dose-response curve [22]	normalized area under the dose-response curve (Se-Ax (cancer type: TCL))	normalized area under the dose-response curve (U266 (cancer type: MM))	normalized area under the dose-response curve (XG2 (cancer type: MM))
Nc1nc(Cl)nc2c1ncn2[C@H]1C[C@H](O)[C@@H](CO)O1 [Cladribine]	0.672	0.555	1.01	0.523	0.825	0.993	0.748	0.185	0.854	0.84	0.798	0.795	0.768	0.533	0.734	0.89	0.826	0.762	0.56	0.49	0.27	0.813	0.52	0.884	0.919	0.311	0.929	0.961	0.89	0.79	0.984	0.939	0.763	0.766	0.167	0.861	0.843	0.627	0.918	0.452
Nc1nc(Cl)nc2c1ncn2[C@@H]1O[C@H](CO)[C@@H](O)[C@@H]1F [Clofarabine]	0.489	0.477	0.973	0.35	0.727	0.559	0.594	0.138	0.578	0.66	0.794	0.592	0.617	0.422	0.536	0.759	0.667	0.686	0.45	0.36	0.274	0.685	0.43	0.5	0.472	0.119	0.915	0.927	0.807	0.74	0.871	0.727	0.728	0.851	0.236	0.662	0.573	0.451	0.595	0.346
O=C(c1ccc(F)c(F)c1Nc1ccc(I)cc1F)N1CC(O)([C@@H]2CCCCN2)C1 [Cobimetinib]	0.392	0.54	0.696	0.888	0.807	0.742	0.724	0.878	0.722	0.75	0.588	0.766	0.731	0.608	0.494	0.842	0.556	0.634	0.65	0.69	0.887	0.857	0.6	0.996	0.923	0.9	0.587	0.822	0.843	0.68	0.629	0.736	0.813	0.808	0.383	0.873	0.83	0.538	0.767	0.501
CC1(COc2ccc3c(c2)ncn3-c2ccc3cccc(N4CCC(N)CC4)c3n2)COC1 [Crenolanib]	0.325	0.436	0.59	0.91	0.569	0.481	0.672	0.746	0.488	0.53	0.45	0.616	0.46	0.407	0.423	0.855	0.459	0.409	0.53	0.52	0.818	0.779	0.45	0.704	0.861	0.773	0.269	0.549	0.541	0.53	0.452	0.464	0.663	0.879	0.49	0.949	0.894	0.594	0.426	0.339
C[C@@H](Oc1cc(-c2cnn(C3CCNCC3)c2)cnc1N)c1c(Cl)ccc(F)c1Cl [Crizotinib]	0.362	0.471	0.509	0.769	0.359	0.405	0.654	0.677	0.423	0.54	0.456	0.577	0.358	0.323	0.306	0.437	0.447	0.465	0.44	0.4	0.731	0.744	0.39	0.817	0.733	0.765	0.381	0.75	0.703	0.73	0.457	0.34	0.487	0.406	0.0611	0.833	0.831	0.368	0.335	0.338
O=P1(N(CCCl)CCCl)NCCCO1 (stereo not given) [Cyclophosphamide]	0.884	0.93	0.918	1	0.928	0.95	0.943	0.915	0.822	0.91	0.944	0.956	0.923	0.863	0.791	0.931	0.831	0.977	0.88	0.9	0.907	0.962	0.93	0.958	0.983	0.885	0.913	0.972	0.86	0.92	0.912	0.887	0.949	0.911	0.937	0.929	0.969	0.865	0.862	0.878
CC(C)(C)c1nc(-c2cccc(NS(=O)(=O)c3c(F)cccc3F)c2F)c(-c2ccnc(N)n2)s1 [Dabrafenib mesylate]	0.643	0.775	0.939	0.898	0.812	0.804	0.587	0.858	0.831	0.75	0.735	0.972	0.979	0.85	0.84	0.752	0.787	0.836	0.84	0.9	0.775	0.908	0.78	0.984	0.861	0.89	0.733	0.906	0.858	0.81	0.829	0.851	0.827	0.851	0.833	0.889	0.882	0.775	0.754	0.932
Cc1nc(Nc2ncc(C(=O)Nc3c(C)cccc3Cl)s2)cc(N2CCN(CCO)CC2)n1 [Dasatinib]	0.72	0.702	0.816	0.783	0.768	0.581	0.611	0.778	0.686	0.48	0.765	0.868	0.994	0.731	0.612	0.875	0.813	0.712	0.76	0.75	0.745	0.841	0.74	0.66	0.718	0.727	0.701	0.824	0.79	0.82	0.802	0.739	0.906	0.843	0.862	0.894	0.754	0.82	0.616	0.746
